Assay results as given in patent US20160280688A1, “SUBSTITUTED PHENYLALANINE DERIVATIVES” (BAYER PHARMA AKTIENGESELLSCHAFT, priority 2013, published 2016).
Counter-ions that a name gives are not always drawn.

Assays:
human factor XIa = target: T1, human factor XIa (Homo sapiens, UniProt P03951); test: Measurement of FXIa inhibition (fluorogenic peptide substrate Boc-Glu(OBzl)-Ala-Arg-AMC); assay type: biochemical; conditions: factor XIa from Kordia, 15 min preincubation, 30 min at 22° C., fluorescence
T1 construct: purchased Kordia
T1 sequence (P03951 388-625 limits assumed): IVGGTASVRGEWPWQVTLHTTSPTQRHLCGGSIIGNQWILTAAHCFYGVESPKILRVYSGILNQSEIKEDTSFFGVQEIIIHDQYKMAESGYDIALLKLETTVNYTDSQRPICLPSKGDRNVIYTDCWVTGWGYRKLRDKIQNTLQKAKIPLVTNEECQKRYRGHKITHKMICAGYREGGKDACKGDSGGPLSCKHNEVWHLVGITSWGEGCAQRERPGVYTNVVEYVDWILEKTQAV
T1 sequence (P03951 19-387 partner limits assumed): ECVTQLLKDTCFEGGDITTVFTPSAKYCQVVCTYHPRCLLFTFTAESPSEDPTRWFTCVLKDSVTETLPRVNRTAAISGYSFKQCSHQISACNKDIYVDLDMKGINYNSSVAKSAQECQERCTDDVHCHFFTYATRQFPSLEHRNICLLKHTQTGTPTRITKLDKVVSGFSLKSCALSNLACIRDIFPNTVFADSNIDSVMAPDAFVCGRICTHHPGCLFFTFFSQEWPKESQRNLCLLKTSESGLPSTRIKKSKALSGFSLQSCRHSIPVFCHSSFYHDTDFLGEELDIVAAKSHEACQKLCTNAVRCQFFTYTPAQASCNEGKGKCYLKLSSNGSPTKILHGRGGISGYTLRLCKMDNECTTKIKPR
Method: To determine the factor XIa inhibition of the substances according to the invention, a biochemical test system is used which utilizes the reaction of a peptidic factor XIa substrate to determine the enzymatic activity of human factor XIa. Here, factor XIa cleaves from the peptic factor XIa substrate the C-terminal aminomethylcoumarin (AMC), the fluorescence of which is measured. The determinations are carried out in microtitre plates.
Test substances are dissolved in dimethyl sulphoxide and serially diluted in dimethyl sulphoxide (3000 μM to 0.0078 μM; resulting final concentrations in the test: 50 μM to 0.00013 μM). In each case 1 μl of the diluted substance solutions are placed into the wells of white microtitre plates from Greiner (384 wells). Subsequently, the following are added successively: 20 μl of assay buffer (50 mmol/l Tris buffer pH 7.4; 100 mmol/l sodium chloride; 5 mmol/l calcium chloride; 0.1% bovine serum albumin) and 20 μl of factor XIa from Kordia (0.45 nM in assay buffer). After 15 min of incubation, the enzyme reaction is started by addition of 20 μl of the factor XIa substrate Boc-Glu(OBzl)-Ala-Arg-AMC dissolved in assay buffer (10 μM in assay buffer) from Bachem, the mixture is incubated at room temperature (22° C.) for 30 min and fluorescence is then measured (excitation: 360 nm, emission: 460 nm). The measured emissions of the test batches with test substance are compared to those of control batches without test substance (only dimethyl sulphoxide instead of test substance in dimethyl sulphoxide), and IC50 values are calculated from the concentration/activity relationships.

human and animal plasma = test: Determination of the anticoagulatory activity: activated partial thromboplastin time (aPTT) in plasma; assay type: biochemical; conditions: in vitro in plasma, C.K. Prest kit, 3 min at 37° C.
Method: The anticoagulatory activity of the test substances is determined in vitro in human and animal plasma (for example mouse, rat, rabbit, pig and dog plasma). To this end, blood is drawn off in a mixing ratio of sodium citrate/blood of 1:9 using a 0.11 molar sodium citrate solution as receiver. Immediately after the blood has been drawn off, it is mixed thoroughly and centrifuged at about 4000 g for 15 minutes. The supernatant is pipetted off.
The activated partial thromboplastin time (aPTT) is determined in the presence of varying concentrations of test substance or the corresponding solvent using a commercial test kit (C.K. Prest from Diagnostica Stago). The test compounds are incubated with the plasma and the PTT reagent (cephalin, kaolin) at 37° C. for 3 minutes. Coagulation is then started by addition of a 25 mM aqueous calcium chloride solution, and the time when coagulation occurs is determined. The concentration of test substance which brings about a 1.5-fold extension of the aPTT is determined Activity data from this test are listed in Table B below: […]

IC50 (human factor XIa)	SMILES	aPTT (concentration of test substance which brings about a 1.5-fold extension of the aPTT) (human and animal plasma)
5.6 nM	Cn1c(=O)[nH]c2ccc(-c3ccc(C[C@H](NC(=O)C4CCC(CN)CC4)C(=O)Nc4ccc(-c5nn[nH]n5)cc4)cc3)cc21 (stereo partly drawn) [Example 4, N-alpha-{[trans-4-(Aminomethyl)cyclohexyl]carbonyl}-4-(3-methyl-2-oxo-2,3-dihydro-1H-benzimidazol-5-yl)-N-[4-(2H-tetrazol-5-yl)phenyl]-L-phenylalaninamide hydrochloride]	0.24 µmol/L
5.1 nM	Cn1cc(-c2ccc(C[C@H](NC(=O)C3CCC(CN)CC3)C(=O)Nc3ccc(-c4nn[nH]n4)cc3)cc2)c(=O)[nH]c1=O (stereo partly drawn) [Example 5, N-alpha-{[trans-4-(Aminomethyl)cyclohexyl]carbonyl}-4-(1-methyl-2,4-dioxo-1,2,3,4-tetrahydropyrimidin-5-yl)-N-[4-(2H-tetrazol-5-yl)phenyl]-L-phenylalaninamide hydrochloride]	0.06 µmol/L
9 nM	NC[C@H]1CC[C@H](C(=O)N[C@@H](Cc2ccc(-c3cccc4[nH]ncc34)cc2)C(=O)Nc2ccc(-c3nn[nH]n3)cc2)CC1 [Example 6, N-alpha-{[trans-4-(Aminomethyl)cyclohexyl]carbonyl}-4-(1H-indazol-4-yl)-N-[4-(2H-tetrazol-5-yl)phenyl]-L-phenylalaninamide hydrochloride]	0.41 µmol/L
1.9 nM	NC[C@H]1CC[C@H](C(=O)N[C@@H](Cc2ccc(-c3cccc4[nH]nc(N)c34)cc2)C(=O)Nc2ccc(-c3nn[nH]n3)cc2)CC1 [Example 10, 4-(3-Amino-1H-indazol-4-yl)-N-alpha-{[trans-4-(aminomethyl)cyclohexyl]carbonyl}-N-[4-(2H-tetrazol-5-yl)phenyl]-L-phenylalaninamide hydrochloride]	
3.2 nM	Cn1cc(-c2ccc(C[C@H](NC(=O)[C@H]3CC[C@H](CN)CC3)C(=O)Nc3ccc(-c4nn[nH]n4)cc3)cc2)c(=O)n(C)c1=O [Example 11, N-alpha-{[trans-4-(Aminomethyl)cyclohexyl]carbonyl}-4-(1,3-dimethyl-2,4-dioxo-1,2,3,4-tetrahydropyrimidin-5-yl)-N-[4-(2H-tetrazol-5-yl)phenyl]-L-phenylalaninamide hydrochloride]	
6.8 nM	NC[C@H]1CC[C@H](C(=O)N[C@@H](Cc2ccc(-c3c[nH]c(=O)[nH]c3=O)cc2)C(=O)Nc2ccc(-c3nn[nH]n3)cc2)CC1 [Example 14, N-alpha-{[trans-4-(Aminomethyl)cyclohexyl]carbonyl}-4-(2,4-dioxo-1,2,3,4-tetrahydropyrimidin-5-yl)-N-[4-(2H-tetrazol-5-yl)phenyl]-L-phenylalaninamide hydrochloride]	
3.8 nM	Cn1cnc2ccc(-c3ccc(C[C@H](NC(=O)[C@H]4CC[C@H](CN)CC4)C(=O)Nc4ccc(-c5nn[nH]n5)cc4)cc3)cc21 [Example 15, N-alpha-{[trans-4-(Aminomethyl)cyclohexyl]carbonyl}-4-(1-methyl-1H-benzimidazol-6-yl)-N-[4-(2H-tetrazol-5-yl)phenyl]-L-phenylalaninamide hydrochloride]	
3.2 nM	Cn1cnc2cc(-c3ccc(C[C@H](NC(=O)[C@H]4CC[C@H](CN)CC4)C(=O)Nc4ccc(-c5nn[nH]n5)cc4)cc3)ccc21 [Example 16, N-alpha-{[trans-4-(Aminomethyl)cyclohexyl]carbonyl}-4-(1-methyl-1H-benzimidazol-5-yl)-N-[4-(2H-tetrazol-5-yl)phenyl]-L-phenylalaninamide hydrochloride]	

More lines, now with the values behind:

SMILES	IC50 (human factor XIa)	aPTT (concentration of test substance which brings about a 1.5-fold extension of the aPTT) (human and animal plasma)
NCC1CCC(C(=O)N[C@@H](Cc2ccc(-c3cnc4[nH]ccc4c3)cc2)C(=O)Nc2ccc(-c3nn[nH]n3)cc2)CC1 (stereo partly drawn) [Example 2, N-alpha-{[trans-4-(Aminomethyl)cyclohexyl]carbonyl}-4-(1H-pyrrolo[2,3-b]pyridin-5-yl)-N-[4-(2H-tetrazol-5-yl)phenyl]-L-phenylalaninamide hydrochloride]	2.6 nM	
NCC1CCC(C(=O)N[C@@H](Cc2ccc(-c3cncc4ccccc34)cc2)C(=O)Nc2ccc(-c3nn[nH]n3)cc2)CC1 (stereo partly drawn) [Example 3, N-alpha-{[trans-4-(Aminomethyl)cyclohexyl]carbonyl}-4-isoquinolin-4-yl-N-[4-(2H-tetrazol-5-yl)phenyl]-L-phenylalaninamide hydrochloride]	1.4 nM	0.14 µmol/L
Cc1nc2cc(-c3ccc(C[C@H](NC(=O)[C@H]4CC[C@H](CN)CC4)C(=O)Nc4ccc(-c5nn[nH]n5)cc4)cc3)ccc2[nH]1 [Example 7, N-alpha-{[trans-4-(Aminomethyl)cyclohexyl]carbonyl}-4-(2-methyl-1H-benzimidazol-5-yl)-N-[4-(2H-tetrazol-5-yl)phenyl]-L-phenylalaninamide hydrochloride]	4.6 nM	
NCCn1cnc2cc(-c3ccc(C[C@H](NC(=O)C4CCC(CN)CC4)C(=O)Nc4ccc(-c5nn[nH]n5)cc4)cc3)ccc21 (stereo partly drawn) [Example 13, 4-[1-(2-Aminoethyl)-1H-benzimidazol-5-yl]-N-alpha-{[trans-4-(aminomethyl)cyclohexyl]-carbonyl]-N-[4-(2H-tetrazol-5-yl)phenyl]-L-phenylalaninamide hydrochloride]	6.6 nM	0.18 µmol/L
NC[C@H]1CC[C@H](C(=O)N[C@@H](Cc2ccc(-c3cn(Cc4ccccc4)c(=O)[nH]c3=O)cc2)C(=O)Nc2ccc(-c3nn[nH]n3)cc2)CC1 [Example 17, N-alpha-{[trans-4-(Aminomethyl)cyclohexyl]carbonyl}-4-(1-benzyl-2,4-dioxo-1,2,3,4-tetrahydropyrimidin-5-yl)-N-[4-(2H-tetrazol-5-yl)phenyl]-L-phenylalaninamide hydrochloride]	0.5 nM	
Cc1ccc2[nH]ncc2c1-c1ccc(C[C@H](NC(=O)[C@H]2CC[C@H](CN)CC2)C(=O)Nc2ccc(-c3nn[nH]n3)cc2)cc1 [Example 18, N-alpha-{[trans-4-(Aminomethyl)cyclohexyl]carbonyl}-4-(5-methyl-1H-indazol-4-yl)-N-[4-(2H-tetrazol-5-yl)phenyl]-L-phenylalaninamide hydrochloride]	2.5 nM	
Cc1nc2c(cc1-c1ccc(C[C@H](NC(=O)[C@H]3CC[C@H](CN)CC3)C(=O)Nc3ccc4[nH]c(=O)[nH]c4c3)cc1)NCCN2 [Example 28, N-alpha-{[trans-4-(Aminomethyl)cyclohexyl]carbonyl}-4-(6-methyl-1,2,3,4-tetrahydropyrido[2,3-b]pyrazin-7-yl)-N-(2-oxo-2,3-dihydro-1H-benzimidazol-5-yl)-L-phenylalaninamide hydrochloride]	37 nM	1.42 µmol/L
NC[C@H]1CC[C@H](C(=O)N[C@@H](Cc2ccc(-c3ccc4c(c3)CNC4=O)cc2)C(=O)Nc2ccc(-c3nc(C(F)(F)C(F)(F)C(=O)O)n[nH]3)cc2)CC1 [Example 29, 3-[5-(4-{[N-{[trans-4-(Aminomethyl)cyclohexyl]carbonyl}-4-(1-oxo-2,3-dihydro-1H-isoindol-5-yl)-L-phenylalanyl}amino}phenyl)-1H-1,2,4-triazol-3-yl]-2,2,3,3-tetrafluoropropanoic acid hydrochloride]	3.9 nM	0.28 µmol/L
